Experimental data taken from patent EP1077981B1, “NOVEL CEPHALOSPORIN COMPOUNDS, PROCESSES FOR PREPARATION THEREOF AND ANTIMICROBIAL COMPOSITIONS CONTAINING THE SAME” (LG CHEMICAL LIMITED, priority 1998, dated 1999).
Converted amounts (≈) assume the structure as drawn.

How the values were obtained:
Test in all cases: MIC against standard strains (agar dilution)
Format in all cases: cell-based
[1] = test system: Klebsiella aerogenes SHV-1 1976E; settings: SHV11976E; Klebsiella aerogenes SHV-1 1976E; Mueller-Hinton agar, 20 hours at 37°C; read-out: MIC
Method: (§1) Test example 1: Measurement of Minimum Inhibitory Concentration (MIC)
(§2) Specifically, test compounds were diluted by 2-fold dilution method and dispersed in Mueller-Hinton agar medium and then, 2µℓ of test strains were inoculated at a concentration of 10^7 cfu(colony forming unit)/mℓ on the medium and incubated for 20 hours at 37°C.

S. pneumoniae = settings: Streptococcus pneumoniae, Mueller-Hinton agar, 10^7 cfu/mℓ, 20 hours at 37°C
Method: as §1, §2

[2] = test system: Acinetobacter calcoaceticu 15473; settings: Acinetobacter calcoaceticu 15473; Mueller-Hinton agar, 20 hours at 37°C; read-out: MIC
Method: as §1, §2

P. vulgaris = settings: Proteus vulgaris, Mueller-Hinton agar, 10^7 cfu/mℓ, 20 hours at 37°C
Method: as §1, §2

[3] = test system: Escherichia coli TEM9 2639E; settings: TEM92639E; Escherichia coli TEM9 2639E; Mueller-Hinton agar, 20 hours at 37°C; read-out: MIC
Method: as §1, §2

[4] = test system: Moraxella catarrhalis C2431; settings: Moraxella catarrhalis C2431; Mueller-Hinton agar, 20 hours at 37°C; read-out: MIC
Method: as §1, §2

[5] = test system: Klebsiella pneumoniae 2011E; settings: Klebsiella pneumoniae 2011E; Mueller-Hinton agar, 20 hours at 37°C; read-out: MIC
Method: as §1, §2

[6] = test system: Enterobacter cloacae IND+VE 1194E; settings: Enterobacter cloacae IND+VE 1194E; Mueller-Hinton agar, 20 hours at 37°C; read-out: MIC
Method: as §1, §2

[7] = test system: Citrobacter freundii 8090; settings: Citrobacter freundii 8090; Mueller-Hinton agar, 20 hours at 37°C; read-out: MIC
Method: as §1, §2

[8] = test system: Pseudomonas aeruginosa 6065Y; settings: Pseudomonas aeruginosa 6065Y; Mueller-Hinton agar, 20 hours at 37°C; read-out: MIC
Method: as §1, §2

[9] = test system: Staphylococcus aureus 6538p; settings: Staphylococcus aureus 6538p; Mueller-Hinton agar, 20 hours at 37°C; read-out: MIC
Method: as §1, §2

[10] = test system: Salmonella typhimurium 14028; settings: Salmonella enterica; Salmonella typhimurium 14028; Mueller-Hinton agar, 20 hours at 37°C; read-out: MIC
Method: as §1, §2

Staphylococcus aureus 77 = settings: Staphylococcus aureus 77; Mueller-Hinton agar, 20 hours at 37°C; read-out: MIC
Method: as §1, §2

[11] = test system: Escherichia coli TEM3 3455E; settings: TEM33455E, 20 h
Method: as §1, §2

[12] = test system: Staphylococcus aureus giorgio; settings: Staphylococcus aureus giorgio; Mueller-Hinton agar, 20 hours at 37°C; read-out: MIC
Method: as §1, §2

[13] = test system: Staphylococcus epidermidi 887E; settings: Staphylococcus epidermidi 887E; Mueller-Hinton agar, 20 hours at 37°C; read-out: MIC
Method: as §1, §2

Enterobacter cloacae P99 = settings: Enterobacter cloacae P99; Mueller-Hinton agar, 20 hours at 37°C; read-out: MIC
Method: as §1, §2

[14] = test system: Moraxella catarrhalis 25240; settings: Moraxella catarrhalis 25240; Mueller-Hinton agar, 20 hours at 37°C; read-out: MIC
Method: as §1, §2

[15] = test system: Staphylococcus aureus 241; settings: Staphylococcus aureus 241; Mueller-Hinton agar, 20 hours at 37°C; read-out: MIC
Method: as §1, §2

Proteus vulgaris 6059 = settings: Proteus vulgaris 6059; Mueller-Hinton agar, 20 hours at 37°C; read-out: MIC
Method: as §1, §2

[16] = test system: Klebsiella aerogenes K1+ 1082E; settings: Klebsiella aerogenes K1+ 1082E; Mueller-Hinton agar, 20 hours at 37°C; read-out: MIC
Method: as §1, §2

[17] = test system: Pseudomonas aeruginosa 1912E; settings: Pseudomonas aeruginosa 1912E; Mueller-Hinton agar, 20 hours at 37°C; read-out: MIC
Method: as §1, §2

S. aureus = settings: Staphylococcus aureus, Mueller-Hinton agar, 10^7 cfu/mℓ, 20 hours at 37°C
Method: as §1, §2

H. influenzae = settings: Haemophilus influenzae; H. influenzae; Mueller-Hinton agar, 10^7 cfu/mℓ, 20 hours at 37°C; read-out: MIC
Method: as §1, §2

[18] = test system: Morganella morganii 1375E; settings: Morganella morganii 1375E; Mueller-Hinton agar, 20 hours at 37°C; read-out: MIC
Method: as §1, §2

Escherichia coli 3190Y = settings: Escherichia coli 3190Y; Mueller-Hinton agar, 20 hours at 37°C; read-out: MIC
Method: as §1, §2

[19] = test system: Citrobacter diversus 2046E; settings: Citrobacter koseri; Citrobacter diversus 2046E; Mueller-Hinton agar, 20 hours at 37°C; read-out: MIC
Method: as §1, §2

E. coli = settings: Escherichia coli, Mueller-Hinton agar, 10^7 cfu/mℓ, 20 hours at 37°C
Method: as §1, §2

Escherichia coli 10536 = settings: Escherichia coli 10536; Mueller-Hinton agar, 20 hours at 37°C; read-out: MIC
Method: as §1, §2

[20] = test system: Escherichia coli TEM1 1193E; settings: TEM11193E, 20 h
Method: as §1, §2

Escherichia coli 851E = settings: Escherichia coli 851E; Mueller-Hinton agar, 20 hours at 37°C; read-out: MIC
Method: as §1, §2

[21] = test system: Enterococcus faecalis 29212; settings: Enterococcus faecalis 29212; Mueller-Hinton agar, 20 hours at 37°C; read-out: MIC
Method: as §1, §2

[22] = test system: Serratia marcescens 1826E; settings: Serratia marcescens 1826E; Mueller-Hinton agar, 20 hours at 37°C; read-out: MIC
Method: as §1, §2

Q: With CC(C)(O/N=C(\C(=O)N[C@@H]1C(=O)N2C(C(=O)[O-])=C(C[n+]3ccccc3)CS[C@H]12)c1csc(N)n1)C(=O)O [Ceftazidime, reference compound] as the compound, how does the MIC [1] read?
A: 0.25 µg/mL (≈ 0.457 µM)

Q: And the MIC (S. pneumoniae)?
A: 8 µg/mL (≈ 14.6 µM)

Q: And the MIC [2]?
A: 2 µg/mL (≈ 3.66 µM)

Q: What about the MIC (P. vulgaris) of the same compound?
A: 0.031 µg/mL (≈ 0.0567 µM)

Q: What about the MIC [3] of the same compound?
A: > 128 µg/mL

Q: What about the MIC [4] of the same compound?
A: 0.031 µg/mL (≈ 0.0567 µM)

Q: And the MIC [5]?
A: 0.5 µg/mL (≈ 0.915 µM)

Q: What about the MIC [6] of the same compound?
A: 0.5 µg/mL (≈ 0.915 µM)

Q: And the MIC [7]?
A: 0.13 µg/mL (≈ 0.238 µM)

Q: What about the MIC [8] of the same compound?
A: 32 µg/mL (≈ 58.5 µM)

Q: What about the MIC [9] of the same compound?
A: 16 µg/mL (≈ 29.3 µM)

Q: What about the MIC [10] of the same compound?
A: 0.25 µg/mL (≈ 0.457 µM)

Q: What about the MIC (Staphylococcus aureus 77) of the same compound?
A: 32 µg/mL (≈ 58.5 µM)

Q: What about the MIC [11] of the same compound?
A: 8 µg/mL (≈ 14.6 µM)

Q: And the MIC [12]?
A: 4 µg/mL (≈ 7.32 µM)

Q: What about the MIC [13] of the same compound?
A: > 128 µg/mL

Q: And the MIC (Enterobacter cloacae P99)?
A: 32 µg/mL (≈ 58.5 µM)

Q: And the MIC [14]?
A: 0.016 µg/mL (≈ 0.0293 µM)

Q: What about the MIC [15] of the same compound?
A: > 128 µg/mL

Q: What about the MIC (Proteus vulgaris 6059) of the same compound?
A: 0.031 µg/mL (≈ 0.0567 µM)

Q: What about the MIC [16] of the same compound?
A: 0.25 µg/mL (≈ 0.457 µM)

Q: And the MIC [17]?
A: 1 µg/mL (≈ 1.83 µM)

Q: What about the MIC (S. aureus) of the same compound?
A: 4 µg/mL (≈ 7.32 µM)

Q: And the MIC (H. influenzae)?
A: 0.063 µg/mL (≈ 0.115 µM)

Q: What about the MIC [18] of the same compound?
A: 0.063 µg/mL (≈ 0.115 µM)

Q: What about the MIC (Escherichia coli 3190Y) of the same compound?
A: 0.031 µg/mL (≈ 0.0567 µM)

Q: What about the MIC [19] of the same compound?
A: 0.25 µg/mL (≈ 0.457 µM)

Q: And the MIC (E. coli)?
A: 0.031 µg/mL (≈ 0.0567 µM)

Q: And the MIC (Escherichia coli 10536)?
A: 0.063 µg/mL (≈ 0.115 µM)

Q: What about the MIC [20] of the same compound?
A: 0.13 µg/mL (≈ 0.238 µM)

Q: What about the MIC (Escherichia coli 851E) of the same compound?
A: 0.063 µg/mL (≈ 0.115 µM)

Q: What about the MIC [21] of the same compound?
A: > 128 µg/mL

Q: What about the MIC [22] of the same compound?
A: 0.25 µg/mL (≈ 0.457 µM)
